Data: patent publication US6562862B1, “Methods of inhibiting physiological conditions associated with an excess of neuropeptide Y” (Eli Lilly and Company, priority 1994, dated 2003)

These compounds were tested against T1, Y1 (Homo sapiens, UniProt P25929) (assay: Neuropeptide Y Binding Assay (125I-peptide YY, SK-N-MC cell homogenate)). Conditions: displacement of 0.1 nM 125I-peptide YY, SK-N-MC cells, about two hours at room temperature.
T1 construct: In this assay the cell line SK-N-MC was employed; endogenous in cells; host or cells: SK-N-MC cells (homogenate of scraped, pelleted cells), received from Sloane-Kettering Memorial Hospital
T1 sequence (P25929 1-384): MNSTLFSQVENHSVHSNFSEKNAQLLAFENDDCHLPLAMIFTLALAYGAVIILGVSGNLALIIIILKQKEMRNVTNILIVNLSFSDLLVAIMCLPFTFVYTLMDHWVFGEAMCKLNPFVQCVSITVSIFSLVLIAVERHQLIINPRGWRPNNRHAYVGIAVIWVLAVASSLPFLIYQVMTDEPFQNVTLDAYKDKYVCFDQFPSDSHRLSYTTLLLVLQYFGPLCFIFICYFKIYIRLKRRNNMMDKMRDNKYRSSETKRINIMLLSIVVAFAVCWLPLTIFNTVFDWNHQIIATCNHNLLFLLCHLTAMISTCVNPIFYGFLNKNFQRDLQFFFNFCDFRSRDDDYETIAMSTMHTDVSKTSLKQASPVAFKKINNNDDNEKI
Method: The biological activity of the compounds of the present invention was evaluated employing an initial screening assay which rapidly and accurately measured the binding of the tested compound to known neuropeptide Y receptor sites. Assays useful for evaluating neuropeptide Y receptor antagonists are well known in the art. See, e.g., U.S. Pat. No. 5,284,839, issued Feb. 8, 1994, which is herein incorporated by reference. See also, M. W. Walker, et al., Journal of Neurosciences, 8:2438-2446 (1988).
Neuropeptide Y Binding Assay
The ability of the compounds of the instant invention were assessed as to their ability to bind to neuropeptide Y using a protocol essentially as described in M. W. Walker, et al., supra. In this assay the cell line SK-N-MC was employed. This cell line was received from Sloane-Kettering Memorial Hospital, New York. These cells were cultured in T-150 flasks using Dulbecco's Minimal Essential Media (DMEM) supplemented with 5% fetal calf serum. The cells were manually removed from the flasks by scraping, pelleted, and stored at −70° C.
The pellets were resuspended using a glass homogenizer in 25 mM HEPES (pH 7.4) buffer containing 2.5 mM calcium chloride, 1 mM magnesium chloride, and 2 mg/L bacitracin. Incubations were performed in a final volume of 200 μl containing 0.1 nM ^125I-peptide YY (2200 Ci/mmol) and 0.2-0.4 mg protein for about two hours at room temperature.
Nonspecific binding was defined as the amount of radioactivity remaining bound to the tissue after incubating in the presence of 1 μM neuropeptide Y. In some experiments various concentrations of compounds were included in the incubation mixture.
Incubations were terminated by rapid filtration through glass fiber filters which had been presoaked in 0.3% polyethyleneimine using a 96-well harvester. The filters were washed with 5 ml of 50 mM Tris (pH 7.4) at 4° C. and rapidly dried at 60° C. The filters were then treated with melt-on scintillation sheets and the radioactivity retained on the filters were counted. The results were analyzed using various software packages. Protein concentrations were measured using standard coumassie protein assay reagents using bovine serum albumin as standards.

| IC50 | SMILES |
| --- | --- |
| ~10 µM | O=C(c1ccc(OCCN2CCCC2)cc1)c1c(-c2ccc(O)cc2)sc2cc(O)ccc12 |
| ~12 µM | COc1ccc2c(C(=O)c3ccc(OCCN4CCCCC4)cc3)c(-c3ccc(O)cc3)sc2c1 [R1=CH3, R2=1-piperidine, R3=H] |
| ~20 µM | O=C(c1ccc(OCCN2CCCCCC2)cc1)c1c(-c2ccc(O)cc2)sc2cc(O)ccc12 [R1=H, R2=1-hexamethylenimino, R3=H] |
| ~17 µM | O=C(c1ccc(OCCN2CCCC2)cc1)c1c(-c2ccc(O)cc2)sc2cc(O)ccc12 [R1=H, R2=1-pyrrolidine, R3=H] |
